This is an account of results in US6750221B1 (BASF Aktiengesellschaft, priority 1999, dated 2004).

Molecules are shown by their SMILES. Read-outs that look alike come from different tables or passages of the source.

For assay [1], the target named is T1, h5-HT5 receptor (Homo sapiens, UniProt P47898).
T1 construct: expressed in transfected cells; host or cells: HEK293 cells (CHO cells obtained analogously), pcDNA3 plasmid, neomycin selection; membranes prepared
The assay is described as follows: Saturation binding of [3H]-5-CT to membranes of h5-HT5 receptor-expressing cells. The note with it: 30° C., 90 min, read-out: dissociation constant Kd. How it is done: The gene coding for the human 5-HT5 receptor was isolated from human tissues in a known manner by means of 3′-5′-RT-PCR (RACE system, Boehringer Mannheim). The gene sequence was then inserted into a plasmid carrying the neomycin resistance gene (pcDNA3; Invitrogen, Germany) and amplified in E. coli according to the manufacturer's instructions. A preparation of the resulting plasmid was mixed with Lipofectamin® (Gibco Life-Sciences, Germany), and HEK293 cells were incubated with a thin layer of this transfection mixture in petri dishes (2.5 cm). The transfection mixture was then replaced by neomycin-containing culture medium. […]
The methodology is essentially known (Ress S. et al., FEBS Letters 335:242-246 (1994)). […] The filters were washed at 4° C. with 9 ml of buffer B. The radioactivity retained on the filters was measured by means of liquid scintillation counting, 5 ml of Ultima-Gold (Packard) being used.
The saturation parameters of the [^3H]-5-CT binding was determined both by nonlinear regression analysis and from linear plots using the SigmaPlot software (Jandel Scientific, Germany). Competition curves were set up in which the radioactive binding is expressed as a percentage proportion of the total binding. Half maximal inhibition constants IC50 and Hill-coefficients (nH) were determined by means of nonlinear regression analysis. […]

The target in assay [2] is T1, h5-HT5 receptor. The assay is described as follows: [3H]-5-CT binding competition on h5-HT5 membranes.
Method: Membranes obtained according to Example 2 (200 μl) were incubated in the presence of 2 nM [^3H]-5-CT in a total volume of 600 μl in buffer B with increasing concentrations of selected compounds. After an incubation time of 75 min at 30° C., the samples were filtered at 4° C. through GF/B filters embedded in 0.3% polyethyleneimide using buffer B. The filters were washed with 9 ml of buffer B. The radioactivity retained on the filters was determined as in Reference Example 3.
According to Reference Example 4, the binding affinities of serotoninergic compounds were determined by means of [^3H]-5-CT binding competition.
The test system of a further assay is male Long Evans rats. The assay is described as follows: Neuroprotective action: MCA occlusion (experimental cerebral stroke). It is filed as in vivo, rat. The note with it: 90 min after MCA occlusion, infarct volume 22 hours after occlusion.
Another assay concerns hippocampal neurons. The assay is described as follows: Neuroprotective action: experimental brain trauma of the rat (lateral fluid percussion). The note with it: 20 + 20 mg/kg i.p., 15 + 120 min post trauma; 14 days after traumatization. It is filed as in vivo. The text has this:
The lateral fluid percussion method (McIntosh TK, Neuroscience 28, 233 244, 1989) was used in order to produce an experimental brain trauma in the rat which is suitable for the testing of potential neuroprotective substances. By means of this technique, controlled and consistent tissue damage was produced underneath the site of the impact, which included the neocortex, the hippocampus and the thalamus.
The right parietotemporal region of the skull was exposed in the anesthetized rat. The skull was trepanned through the parietal cortex (about 4 mm diameter), the dura being left intact. A Luer lock attachment was fixed to the skull using dental cement through the trepanation. After the dental cement had hardened, the rat was connected to the fluid percussion apparatus according to McIntosh. This consisted of a cylinder filled with 0.9% NaCl solution, one end of the cylinder being closed by a piston, while the other end was connected via a pressure transducer to a Luer lock attachment. […]
The rats were sacrificed 14 days after traumatization for removal of the brain. […] For the quantification of the neuronal damage, cell counts were carried out bilaterally in the rostral hippocampus; the proportion of intact cells in the dentate gyrus was determined on the traumatized (right) and the (left) opposite side. […]

Where [3] appears, read: 2 + 1 mg/kg + mg/kg/h i.v. bolus then infusion.

T1 sequence (P47898 whole entry): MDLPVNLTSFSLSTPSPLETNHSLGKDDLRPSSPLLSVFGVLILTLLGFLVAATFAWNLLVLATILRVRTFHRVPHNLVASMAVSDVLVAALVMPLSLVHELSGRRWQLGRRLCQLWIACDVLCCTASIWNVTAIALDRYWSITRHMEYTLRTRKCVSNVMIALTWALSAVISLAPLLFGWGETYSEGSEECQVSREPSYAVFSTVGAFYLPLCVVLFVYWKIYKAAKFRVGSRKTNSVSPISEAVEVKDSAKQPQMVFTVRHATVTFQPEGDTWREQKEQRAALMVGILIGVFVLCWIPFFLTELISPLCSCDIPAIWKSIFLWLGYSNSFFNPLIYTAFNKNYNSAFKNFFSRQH
Method for male Long Evans rats: The experiments were performed on male Long Evans rats. Under nitrous oxide-assisted halothane anesthesia, the middle cerebral artery (MCA) was severed and permanently ligated distally, as described in the literature. The resulting infarct volume was determined 22 hours after MCA occlusion.

Take `NCCc1c[nH]c2ccc(C(N)=O)cc12` [Compound 5-CT, 5-carboxamidotryptamine, reference compound]: on h5-HT5 receptor [1], the Kd was determined as 0.57 nM. At h5-HT5 receptor [2] (2 nM [3H]-5-CT, 75 min at 30° C., Ki=IC50/(1+C/Kd)), this compound gave a Ki of 1.44 nM.
On to `CN1CCc2c(sc3ncn(CCN4CCN(c5cccc(C(F)(F)F)c5)CC4)c(=O)c23)C1` [Compound A, 3,4,5,6,7,8-Hexahydro-7-methyl-3-[2-(4-(3-trifluoromethyl-phenyl)piperazin-1-yl)ethyl]pyrido[4′,3′:4,5]thieno[2,3-d]-pyrimidin-4-one], for which the Ki on h5-HT5 receptor [2] was found to be 661 nM. Moreover, in the assay on male Long Evans rats (4 + 2 mg/kg + mg/kg/h i.v. bolus then infusion), the “Infarct volume, % of the control [mean value ± SD]” value is recorded as 62 ± 18 % of the control.
Regarding `CCN1CCc2sc3ncn(CCN4CCN(c5cccc6ccccc56)CC4)c(=O)c3c2C1` [Compound B, 3,4,5,6,7,8-Hexahydro-6-ethyl-3-[2-(4-(1-naphthyl)piperazin-1-yl)ethyl]pyrido[3′,4′:4,5]thieno[2,3-d]pyrimidin-4-one], the “Quotient m ± sm of neuron count of the trauma side to the contralateral side (hippocampus)” value with hippocampal neurons is recorded as 0.64 ± 0.03. On h5-HT5 receptor [2], this compound had an inhibitory constant (Ki) of 124 nM. Moreover, in the assay with male Long Evans rats (setting [3]), the “Infarct volume, % of the control [mean value ± SD]” value is given as 66 ± 19 % of the control.
Turning to `COc1ccc2cccc(N3CCN(CCn4cnc5sc6c(c5c4=O)CCN(C)C6)CC3)c2c1` [Compound C], in the assay on hippocampal neurons, the “Quotient m ± sm of neuron count of the trauma side to the contralateral side (hippocampus)” value was found to be 0.56 ± 0.05. This compound also returned a Ki on h5-HT5 receptor [2] of 237 nM. In the assay on male Long Evans rats (1 + 0.5 mg/kg + mg/kg/h i.v. bolus then infusion), the “Infarct volume, % of the control” value is 67 % of the control.
`CCCN(CCC)C1CCc2cccc(O)c2C1` (stereo not drawn) [R(+)-8-OH-DPAT, 8-hydroxy-2-(di-n-propylamino)tetralin, reference compound]: in the assay on male Long Evans rats (setting [3]), the “Infarct volume, % of the control [mean value ± SD]” value is given as 72 ± 32 % of the control.

In general, Kd refers to the constant that tells how readily two partners part at equilibrium. By Ki is commonly meant a measure of affinity in units of concentration, obtained from inhibition or displacement.
